Kd data for one compound are collected here from US5593835A, “Methods and kits for RNA binding compounds” (President and Fellows of Harvard College, priority 1995, dated 1997).

The target of experiment [1] is clone W13 RNA (SEQ ID NO:1), tobramycin-selected RNA aptamer. In words: Equilibrium dialysis binding to clone W13 RNA. The conditions noted are these: competition studies with 3H-acetyl tobramycin; read-out: dissociation constant. As to the method: One of these RNAs, clone W13 (SEQ ID NO:1) was chosen for quantitative studies to determine the specificity of its binding to RNA. […] The dissociation constant for tobramycin was determined to be 3 μM by competition studies with ^3 H-acetyl tobramycin. These values are close to those measured for tobramycin and ^3 H-acetyl tobramycin binding to ribosomal targets (LeGoffic et al. (1979) Eur. J. Biochem. 102: 73-81).
Equilibrium dialysis measurements were performed according to the procedure of Lorsch et al. (Biochem. (1994) 33: 973-982).
On the technique in general: Equilibrium dialysis compares concentrations on both sides of a semipermeable membrane.

For experiment [2], the target named is W13 RNA having SEQ ID NO:1. Briefly: Fluorescence (PYT quenching) titration and competition binding to W13 RNA. The conditions noted are these: fluorescence; competition with PYT (150 nM PYT, 300 nM W13), 20° C., pH 7.4; N.B. = no measurable binding. Here is the method:
To study the binding behavior of clone W13, a fluorescently labelled pyrene-conjugated tobramycin derivative "PYT" was prepared.
For competitive binding studies, different concentrations of antibiotic (glucosamine (0-10 mM), erythromycin (0-6 mM), gentamicin C (0-700 μM), or neomycin B (0-650 μM)), were mixed with constant concentrations of RNA (300 nM W13) and PYT (150 nM), in Binding buffer (140 mM NaCl, 5 mM KCl, 1 mM MgCl2, 1 mM CaCl2, 20 mM HEPES, pH 7.4), 750 μl total volume, for 1-5 min. at 20° C. in a semimicro-cell cuvette. The fluorescence was measured on a Perkin-Elmer Model 512 double beam fluorescence spectrophotometer. The excitation wavelength used was 341 nm. The intensities of fluorescence emission at 380 nm were used to calculate dissociation constants. Generally 8 to 10 points were used for calculation.
(§1) Steady state fluorescence measurements were performed on a double beam fluorescence spectrometer (Perkin-Elmer Model 512, Norwalk, Conn.). The excitation wavelength was 341 nm. All measurements were done at 20° C. in 140 mM NaCl, 5 mM KCl, 1 mM CaCl2, 1 mM MgCl2, and 20 mM HEPES, pH 7.4. The KD of the PYT and the RNA aptamer was calculated by the curve fitting of the fluorescence intensity as a function of RNA concentration, using the following equation
(assuming a 1:1 complex): I=Io +0.5Δε ([PYT]o
-(([PYT]o +[RNA]o KI)^2 -4[PYT]o [RNA]o)^0.5)
Competition binding measurements of antibiotics with RNA and PYT were performed at constant concentrations of PYT and RNA by monitoring fluorescence intensity changes as a function of changing concentrations of the antibiotics (a standard fluorescence curve). The KD s for the antibiotics were calculated by the curve fitting of the fluorescence intensity of PYT as a function of antibiotic concentration, using the following equation:
I=Io +Δε[PYT.circle-solid.RNA]
[PYT.circle-solid.RNA]=0.5(([PYT]o +[RNA]o)([RNA]o
+KD)+KI ([T]o +[RNA]o +KD)-((([PYT]o
+[RNA]o)([RNA]o +KD)+KI ([T]o +[RNA]o
+KD))^2 -4([RNA]o +KD) [PYT]o [RNA]o
([RNA]o +KD))^0.5)([RNA]o +KD) (equation 2)
KD and KI are the dissociation constants for the antibiotic and PYT respectively.
[T]o is the total concentration of antibiotic added. Measurements were taken at least twice for each measured KD.

For experiment [3], the target named is random selected RNA pool (low stringency tobramycin column). In words: Fluorescence assay, average binding of the random selected RNA pool. To be noted: overall selected pool mixture. Here is the method: To determine whether the W13 RNA clone is representative of the average binding capacity of the random selected RNA pool, the average KD values for the random selected pool were measured. […] Therefore, the W13 RNA is representative of the average binding capacity of the random selected pool.
as §1
(§2) Competition binding measurements of antibiotics with RNA and PYT were performed at constant concentrations of PYT and RNA by monitoring fluorescence intensity changes as a function of changing concentrations of the antibiotics (a standard fluorescence curve). The KD s for the antibiotics were calculated by the curve fitting of the fluorescence intensity of PYT as a function of antibiotic concentration, using the following equation: […]

For experiment [4], the target named is X1 RNA (SEQ ID NO: 3 in Table 3; SEQ ID NO:2 in text). Briefly: Fluorescence binding measurements, X1 RNA. As to the method:
(§3) The binding of tobramycin to two cloned RNAs X1 (SEQ ID NO:2) and J6 (SEQ ID NO:5), representative of both classes of consensus sequences, was measured using the fluorescence techniques described in the exemplification.
as §1, §2

The target in experiment [5] is X1s1 RNA (SEQ ID NO: 3), synthetically derived from the predicted structures. Briefly: Fluorescence binding measurements, X1s1 RNA. Here is the method:
as §3
*synthetically derived from the predicted structures
as §1, §2

[6] abbreviates: K1 - high affinity, read-out: Dissociation Constants K1(TOB).
[7] abbreviates: K2 - low affinity, read-out: Dissociation Constants K2(TOB).

Where two headings read alike, the source gives them in different places.

Regarding `NC[C@H]1O[C@H](O[C@H]2[C@H](O)[C@@H](O[C@H]3O[C@H](CO)[C@@H](O)[C@H](N)[C@H]3O)[C@H](N)C[C@@H]2N)[C@H](N)C[C@@H]1O` [tobramycin], the Kd in experiment [1] is 3 µM; in experiment [2] it was 4.3 ± 0.7 µM; in experiment [3] it was 8.8 ± 0.3 µM; in experiment [4] (setting [6]) it was 0.003 ± 0.001 µM; in experiment [4] (setting [7]), 15.9 ± 0.7 µM; in experiment [5] (setting [6]), 0.012 ± 0.005 µM. Besides, the Kd in experiment [5] (setting [7]) is 13.2 ± 0.5 µM.
